These results are taken from patent publication US20220235006A1, “PYRIDINE DERIVATIVES AS TMEM16A MODULATORS FOR USE IN THE TREATMENT OF RESPIRATORY CONDITIONS” (TMEM16A LIMITED, priority 2019, published 2022).

Series [1] has as its target T1, human TMEM16A (TMEM16Aabc variant) (Homo sapiens, UniProt Q5XXA6, DEL476-501).
T1 sequence (Q5XXA6 with tags, fused parts or gaps isoform Q5XXA6-5 DEL539-564): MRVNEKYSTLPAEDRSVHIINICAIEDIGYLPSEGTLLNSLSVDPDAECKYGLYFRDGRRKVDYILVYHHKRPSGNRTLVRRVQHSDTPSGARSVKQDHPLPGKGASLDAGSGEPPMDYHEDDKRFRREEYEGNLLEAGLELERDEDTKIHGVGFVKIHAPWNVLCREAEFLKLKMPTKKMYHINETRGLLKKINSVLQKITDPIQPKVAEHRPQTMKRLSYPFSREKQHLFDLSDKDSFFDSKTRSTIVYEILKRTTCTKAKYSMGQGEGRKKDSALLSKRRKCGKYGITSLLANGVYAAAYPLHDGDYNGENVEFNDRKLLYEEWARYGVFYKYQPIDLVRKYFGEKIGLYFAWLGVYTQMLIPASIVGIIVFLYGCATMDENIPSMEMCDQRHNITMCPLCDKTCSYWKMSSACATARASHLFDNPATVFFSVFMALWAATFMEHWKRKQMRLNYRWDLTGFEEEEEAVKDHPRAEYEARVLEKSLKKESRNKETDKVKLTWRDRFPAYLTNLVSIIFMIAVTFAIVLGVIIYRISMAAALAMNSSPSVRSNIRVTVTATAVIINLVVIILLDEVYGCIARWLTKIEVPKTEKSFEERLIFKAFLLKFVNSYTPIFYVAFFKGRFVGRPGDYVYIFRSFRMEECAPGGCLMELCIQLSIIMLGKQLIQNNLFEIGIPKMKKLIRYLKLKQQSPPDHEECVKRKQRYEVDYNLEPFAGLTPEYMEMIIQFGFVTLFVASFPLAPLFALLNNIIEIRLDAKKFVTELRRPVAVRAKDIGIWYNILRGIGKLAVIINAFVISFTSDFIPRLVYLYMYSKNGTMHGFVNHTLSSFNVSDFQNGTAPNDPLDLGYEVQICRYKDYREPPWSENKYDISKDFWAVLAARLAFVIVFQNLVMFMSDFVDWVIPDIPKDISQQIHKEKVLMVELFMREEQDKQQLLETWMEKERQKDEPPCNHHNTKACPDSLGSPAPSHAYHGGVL
Nature of the series: Automated whole-cell patch clamp (Qpatch) TMEM16A potentiator assay in recombinant FRT cells. The conditions noted are these: for activation at 3.33 µM: percentage increase of baseline TMEM16A current, minimum n = 2, read-out: % Potentiation @ 3.33 uM Avg; for pEC50: minimum n = 2. The format is cell-based. The gist of the method:
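FRT cells stably expressing human TMEM16Aabc, whole-cell automated patch clamp with intracellular Ca2+ buffered for ~20% maximal current (EC20). Held at −70 mV, step to +70 mV/ramp at 0.05 Hz, cumulative compound additions of 5 min each. Peak +70 mV current increase expressed as % potentiation of baseline.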

Series [2] in a line: Kinetic solubility determination (high throughput). The conditions noted are these: kinetic from dmso stock, sterile water, 5% DMSO, room temperature. The format is physicochemical. As to the method: Test compounds (10 μL; 20 mM DMSO solution) were added to sterile water (190 μL) in triplicate and shaken at 300 rpm at room temperature. After 90 min. the test compounds were filtered by centrifuge (5 min. at 3000 rpm) to obtain the aqueous filtrate. Acetonitrile (20 μL) was dispensed into clean 96-well UV/VIS analysis plate and aqueous filtrate (80 μL) added and the plate analysed for test compound concentration using a Molecular Devices SPECTRAmax® plus microplate reader at the following wavelengths: (280, 300, 320, 340, 360, 800 nm). […] The diluted filtrate (80 μL) was then added to acetonitrile (20 μL) and the plate analysed. as previously.

A short description of series [3]: Log D (pH7.4 shake flask). Format: physicochemical. The settings on record: pH 7.4; 1-octanol/phosphate buffer shake flask; read-out: mLogD (pH 7.4). As to the method: Phosphate buffer (1 M) was diluted to 20 mM with deionised water and adjusted to pH 7.4 with phosphoric acid or sodium hydroxide. 1-octanol and phosphate buffer (20 mM) were saturated overnight by tumbling. The two phases were separated using a separation funnel. 5 μL of 5 mM compound cassette was added to 495 μL of octanol-saturated buffer and 495 μL buffer saturated octanol in a 96-well plate (top concentration 50 μM). Plate was shaken for 1 h and centrifuged at 25° C. for 5 min. 200 μL of each phase was transferred to a separate plate. The octanol layer was sampled first to avoid cross contamination. 5 μL of the solutions were transferred to 495 μL of quench solution* (max concentration 0.5 μM). In addition, 40 μL of buffer solution was added to 360 μL of quench solvent (max concentration 5 μM). Samples were analysed by LC-MS/MS. Benchmarking against a calibration curve for each compound and with reference to the control compounds sulpride, diclofenac, chlorpromazine and tamoxifen. *Quench solution was a 1:3:1 mixture (v/v/v) of Acetonitrile containing 0.1% formic acid and imipramine/labetalol, 200 nM:Acetonitrile:Water.

SMILES strings stand for the structures. pEC50: −log10 of the molar value. Values after ≈ are worked out from the molar mass of the structure shown.

For the molecule `CC(C)(C)NC(=O)c1cc(NC(=O)Cc2cc(O)c(C(C)(C)C#N)cc2F)ccn1` [Example 2.2, N-tert-Butyl-4-[[2-[4-(1-cyano-1-methyl-ethyl)-2-fluoro-5-hydroxy-phenyl]acetyl]amino]pyridine-2-carboxamide], in series [1], the activation at 3.33 µM stood at 356% and the pEC50 – broadly, the negative decadic logarithm of the EC50, by convention in mol/L – is 6.82. Also, the solubility (kinetic) (as a rule, solubility judged after dilution from a stock solution rather than from solid) at 90 min in series [2] was 42 µg/mL (≈ 102 µM). Also, the logD in series [3] is above 4.2.
`[2H]c1c(O)c(C(C([2H])([2H])[2H])(C([2H])([2H])[2H])C([2H])([2H])[2H])cc(F)c1CC(=O)Nc1ccnc(C(=O)NC2(C#N)CC2)c1` [Example 4, N-(1-Cyanocyclopropyl)-4-[[2-[2-deuterio-6-fluoro-3-hydroxy-4-[2,2,2-trideuterio-1,1-bis(trideuteriomethyl)ethyl]phenyl]acetyl]amino]pyridine-2-carboxamide]: in series [1], the activation at 3.33 µM came out at 186% and the pEC50 was 7.54. In series [2], the kinetic solubility at 90 min stood at 29 µg/mL (≈ 69 µM). In series [3], the logD turned out to be 3.8.
The matching figures for `CC(C)(C#N)NC(=O)c1cc(NC(=O)Cc2cc(O)c(C(C)(O)C(F)(F)F)cc2F)ccn1` (stereo not drawn) [Example 2.7, N-(1-Cyano-1-methyl-ethyl)-4-[[2-[2-fluoro-5-hydroxy-4-(2,2,2-trifluoro-1-hydroxy-1-methyl-ethyl)phenyl]acetyl]amino]pyridine-2-carboxamide]: 309%, 6.66, 164 µg/mL (≈ 350 µM) and 3.
In the case of `CC(C)(C#N)NC(=O)c1cc(NC(=O)Cc2cc(O)c(C(C)(C)CN3CCOCC3)cc2F)ccn1` [Example 2.5, N-(1-Cyano-1-methyl-ethyl)-4-[[2-[4-(1,1-dimethyl-2-morpholino-ethyl)-2-fluoro-5-hydroxy-phenyl]acetyl]amino]pyridine-2-carboxamide], the activation at 3.33 µM in series [1] was determined as 112%. In series [2], this molecule returned a kinetic solubility at 90 min of 327 µg/mL (≈ 657 µM). Moreover, the logD in series [3] was determined as 2.7.
Regarding `CC(C)(C#N)c1cc(F)c(CC(=O)Nc2ccnc(C(=O)NC3(C(F)(F)F)CC3)c2)cc1O` [Example 2.3, 4-[[2-[4-(1-Cyano-1-methyl-ethyl)-2-fluoro-5-hydroxy-phenyl]acetyl]amino]-N-[1-(trifluoromethyl)cyclopropyl]pyridine-2-carboxamide], in series [1], the activation at 3.33 µM was found to be 72.1% and the pEC50 is 7.28. In addition, in series [2], the kinetic solubility at 90 min was 69 µg/mL (≈ 149 µM). The logD in series [3] amounted to 2.9.
For the molecule `CC(C)(C)c1cc(Cl)c(CC(=O)Nc2ccnc(C(=O)NC3(C(F)(F)F)CC3)c2)cc1O` [Example 10.1, 4-[[2-(4-tert-Butyl-2-chloro-5-hydroxy-phenyl)acetyl]amino]-N-[1-(trifluoromethyl)cyclopropyl]pyridine-2-carboxamide], in series [1], the activation at 3.33 µM came out at 250% and the pEC50 is 7.24. For the same molecule, the solubility (kinetic) at 90 min in series [2] is 256 µg/mL (≈ 545 µM). For the same molecule, the logD in series [3] came to 3.7.
Turning to `CC(C)(C)c1cc(Cl)c(CC(=O)Nc2ccnc(C(=O)NC3(C#N)CC3)c2)cc1O` [Example 10.2, 4-[[2-(4-tert-Butyl-2-chloro-5-hydroxy-phenyl)acetyl]amino]-N-(1-cyanocyclopropyl)pyridine-2-carboxamide], in series [1], the activation at 3.33 µM came to 252% and the pEC50 was 7.28. This molecule showed a solubility (kinetic) at 90 min in series [2] of 11 µg/mL (≈ 25.8 µM). The logD in series [3] stood at 3.7.
